Results as given in US10226453B2, “3-(1H-indol-2-yl)-1H-pyrazolo[4,3-B]pyridines and therapeutic uses thereof” (Samumed, LLC, priority 2015, dated 2019).

Key:
Type in all cases: cell-based
[1] = test system: IL-6 (THP-1 cells); assay: IL-6 inhibition in LPS-stimulated THP-1 human monocyte cells (HTRF); conditions: LPS 500 ng/mL; for EC50: 22 hours, IL6 HTRF; for inhibition at 10 µM: given where EC50 >10 μM, read-out: percent inhibition at 10 μM
Method in brief: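 Readout is the 665/620 nm HTRF ratio for secreted IL-6, normalized to DMSO wells, with EC50 from a variable-slope four-parameter fit, or % inhibition at 10 μM when above 10 μM. Cells (1% FBS, 24 h beforehand) got compound for 2 h, then LPS 500 ng/mL for 22 h at 37° C; top dose 10 μM, 0.1% DMSO.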

[2] = test system: Wnt activity (Sp5-Luc reporter, SW480 colon carcinoma cells); assay: Wnt activity screening assay: Sp5-Luc reporter gene in SW480 colon carcinoma cells; conditions: Homo sapiens; for EC50: overnight incubation, 10-point curve from 10 μM; for inhibition at 10 µM: given where EC50 >10 μM, read-out: percent inhibition at 10 μM
Method in brief: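 Luminescence read-out (BrightGlo) from stable Sp5-Luc SW480 cells, normalized to DMSO-only wells. Cells were treated overnight at 37° C in 1% FBS medium across a 1:3, 10-point series starting at 10 μM. EC50 from variable-slope four-parameter regression; percent inhibition at 10 μM given where EC50 >10 μM.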

[3] = test system: primary human mesenchymal stem cells (hMSCs); assay: Induction of chondrogenesis in primary human mesenchymal stem cells (hMSCs), nodule count; conditions: 144 h, 6 days; for EC50: concentration required to induce 50% levels of chondrogenesis of TGF-β3 control, read-out: Conc (nM) of 50% TGF-β3 activity; for Emax: relative to TGF-β3 (10 ng/mL) positive control, read-out: Max. Activity as % TGF-β3 activity
Description: Representative compounds were screened using primary human mesenchymal stem cells (hMSCs) to determine their ability to induce chondrogenesis (process by which cartilage is developed).
Primary human mesenchymal stem cells (hMSCs) were purchased from Lonza (Walkersville, Md.) and expanded in Mesenchymal Stem Cell Growth Media (Lonza). Cells between passage 3 and 6 were used for the experiments.
Each compound was dissolved in DMSO as a 10 mM stock and used to prepare compound source plates. Serial dilution (1:3, 6-point dose-response curves from 2700 nM to 10 nM) and compound transfer was performed using the ECHO 550 (Labcyte, Sunnyvale, Calif.) into 96-well clear bottom assay plates (Greiner Bio-One) with appropriate DMSO backfill for a final DMSO concentration of 0.03%. hMSCs were plated at 20,000 cells/well in 250 μL/well Incomplete Chondrogenic Induction Medium (Lonza; DMEM, dexamethasone, ascorbate, insulin-transferrin-selenium [ITS supplement], gentamycin-amphotericin [GA-1000], sodium pyruvate, proline and L-glutamine). TGF-β3 (10 ng/mL) was used as a positive control for differentiation while negative control wells were treated with 75 nL DMSO for normalization and calculating EC50 values. Cells were incubated at 37° C. and 5% CO2 for 6 days. To image chondrogenic nodules, the cells were fixed using 4% formaldehyde (Electron Microscopy Sciences), and stained with 2 μg/mL Rhodamine B (Sigma-Aldrich) and 20 μM Nile Red (Sigma-Aldrich) [Johnson K., et. al, A Stem Cell-Based Approach to Cartilage Repair, Science, (2012). 336(6082), 717-721]. The nodules imaged (4 images per well at 4× magnification) by excitation at 531 nm and emission at 625 nm and quantified using the CellInsight CX5 (Thermo Scientific). Number of nodules in each well was normalized to the average of 3 DMSO treated wells on the same plate using Excel (Microsoft Inc.). The normalized averages (fold change over DMSO) of 3 replicate wells for each compound concentration were calculated. Due to solubility limitations of some of the compounds, curve fitting was incomplete leading to inaccurate EC50 determinations.
Using TGF-β3 as a positive control, the concentration of representative compounds required to induce 50% levels of chondrogenesis is reported. In addition, the maximum activity of each compound and the respective dose that each compound reached maximum chondrogenesis activity is reported.

Row | SMILES | EC50 [1] [nM] | EC50 [2] [nM] | EC50 [3] [nM] | inhibition at 10 µM [1] [%] | Emax [3] [%] | inhibition at 10 µM [2] [%]
1 | c1cncc(-c2ccc3[nH]nc(-c4cc5c(-c6cccnc6)cccc5[nH]4)c3n2)c1 [Compound 88, 5-(Pyridin-3-yl)-3-(4-(pyridin-3-yl)-1H-indol-2-yl)-1H-pyrazolo[4,3-b] pyridine] | 31 | 185 | 900 | – | 386 | –
2 | FC1(F)CCN(Cc2cncc(-c3ccc4[nH]nc(-c5cc6c(-c7ccccn7)cccc6[nH]5)c4n3)c2)C1 [Compound 166, 5-(5-((3,3-Difluoropyrrolidin-1-yl)methyl)pyridin-3-yl)-3-(4-(pyridin-2-yl)-1H-indol-2-yl)-1H-pyrazolo[4,3-b]pyridine] | 306 | 432 | 10 | – | 82 | –
3 | CN(C)CCNc1cc(F)cc(-c2cccc3[nH]c(-c4n[nH]c5ccc(-c6cncnc6)nc45)cc23)c1 [Compound 475, N^1-(3-Fluoro-5-(2-(5-(pyrimidin-5-yl)-1H-pyrazolo[4,3-b]pyridin-3-yl)-1H-indol-4-yl)phenyl)-N^2,N^2-dimethylylethane-1,2-diamine] | 18 | 498 | 10 | – | 181 | –
4 | c1cc(N2CCCCC2)c2cc(-c3n[nH]c4ccc(-c5cncc(OC6CCNCC6)c5)nc34)[nH]c2c1 [Compound 636, 3-(4-(Piperidin-1-yl)-1H-indol-2-yl)-5-(5-(piperidin-4-yloxy)pyridin-3-yl)-1H-pyrazolo[4,3-b]pyridine] | 1980 | 2390 | – | – | 34 | –
5 | Fc1ccc(-c2cccc3[nH]c(-c4n[nH]c5ccc(-c6cncnc6)nc45)cc23)cc1 [Compound 55, 3-(4-(4-Fluorophenyl)-1H-indol-2-yl)-5-(pyrimidin-5-yl)-1H-pyrazolo[4,3-b] pyridine] | 103 | 1310 | – | – | – | –
6 | Nc1cncc(-c2ccc3[nH]nc(-c4cc5c(-c6ccncc6)cccc5[nH]4)c3n2)c1 [Compound 115, 5-(3-(4-(Pyridin-4-yl)-1H-indol-2-yl)-1H-pyrazolo[4,3-b]pyridin-5-yl) pyridin-3-amine] | 52 | 67 | 900 | – | 165 | –
7 | CC(C)(C)C(=O)Nc1cncc(-c2ccc3[nH]nc(-c4cc5c(-c6cccc(F)c6)cccc5[nH]4)c3n2)c1 [Compound 8, N-(5-(3-(4-(3-Fluorophenyl)-1H-indol-2-yl)-1H-pyrazolo[4,3-b]pyridin-5-yl)pyridin-3-yl)pivalamide] | 2720 | 2930 | – | – | – | –
8 | Fc1cccc(-c2cccc3[nH]c(-c4n[nH]c5ccc(-c6cncc(OCc7ccccc7)c6)nc45)cc23)c1 [Compound 546, 5-(5-(Benzyloxy)pyridin-3-yl)-3-(4-(3-fluorophenyl)-1H-indol-2-yl)-1H-pyrazolo[4,3-b]pyridine] | 2910 | 2660 | – | – | – | –
9 | Oc1cncc(-c2ccc3[nH]nc(-c4cc5c(-c6cccs6)cccc5[nH]4)c3n2)c1 [Compound 737, 5-(3-(4-(Thiophen-2-yl)-1H-indol-2-yl)-1H-pyrazolo[4,3-b]pyridin-5-yl) pyridin-3-ol] | 347 | > 10000 | – | – | – | 3.3
10 | Nc1cncc(-c2ccc3[nH]nc(-c4cc5ncccc5[nH]4)c3n2)c1 [Compound 507, 5-(3-(1H-Pyrrolo[3,2-b]pyridin-2-yl)-1H-pyrazolo[4,3-b]pyridin-5-yl) pyridin-3-amine] | 8 | 256 | – | – | – | –

Further lines, with some results ahead:

Row | EC50 [1] [nM] | EC50 [2] [nM] | EC50 [3] [nM] | SMILES | inhibition at 10 µM [1] [%] | Emax [3] [%] | inhibition at 10 µM [2] [%]
11 | 6340 | 3240 | – | FC1(F)CCN(Cc2cncc(-c3ccc4[nH]nc(-c5cc6c(-c7cccs7)cccc6[nH]5)c4n3)c2)C1 [Compound 362, 5-(5-((3,3-Difluoropyrrolidin-1-yl)methyl)pyridin-3-yl)-3-(4-(thiophen-2-yl)-1H-indol-2-yl)-1H-pyrazolo[4,3-b]pyridine] | – | – | –
12 | > 10000 | 6490 | – | c1cc(-c2ccoc2)c2cc(-c3n[nH]c4ccc(-c5cncc(OC6CCCCC6)c5)nc34)[nH]c2c1 [Compound 715, 5-(5-(Cyclohexyloxy)pyridin-3-yl)-3-(4-(furan-3-yl)-1H-indol-2-yl)-1H-pyrazolo[4,3-b]pyridine] | 36.2 | – | –
13 | 483 | 5160 | 2700 | c1cc(-c2ccncc2)c2cc(-c3n[nH]c4ccc(-c5cncc(CN6CCCCC6)c5)nc34)[nH]c2c1 [Compound 127, 5-(5-(Piperidin-1-ylmethyl)pyridin-3-yl)-3-(4-(pyridin-4-yl)-1H-indol-2-yl)-1H-pyrazolo[4,3-b]pyridine] | – | 151 | –
14 | 1280 | 2020 | 10 | Cc1ccncc1-c1ccc2[nH]nc(-c3cc4c(N5CCN(C)CC5)cccc4[nH]3)c2n1 [Compound 229, 3-(4-(4-Methylpiperazin-1-yl)-1H-indol-2-yl)-5-(4-methylpyridin-3-yl)-1H-pyrazolo[4,3-b]pyridine] | – | 63 | –
15 | > 10000 | 767 | – | c1cnc2cc(-c3n[nH]c4ccc(-c5cn[nH]c5)nc34)[nH]c2c1 [Compound 1021, 5-(1H-Pyrazol-4-yl)-3-(1H-pyrrolo[3,2-b]pyridin-2-yl)-1H-pyrazolo[4,3-b] pyridine] | 0 | – | –
16 | 13 | 1300 | – | c1cncc(-c2ccc3[nH]nc(-c4cc5ccccc5[nH]4)c3n2)c1 [Compound 256, 3-(1H-Indol-2-yl)-5-(pyridin-3-yl)-1H-pyrazolo[4,3-b]pyridine] | – | – | –
17 | 278 | 4620 | – | CN(C)CCNc1cc(F)cc(-c2cccc3[nH]c(-c4n[nH]c5ccc(-c6ccccn6)nc45)cc23)c1 [Compound 476, N^1-(3-Fluoro-5-(2-(5-(pyridin-2-yl)-1H-pyrazolo[4,3-b]pyridin-3-yl)-1H-indol-4-yl)phenyl)-N^2,N^2-dimethylethane-1,2-diamine] | – | 42 | –
18 | 6730 | > 10000 | – | Fc1ccccc1-c1cccc2[nH]c(-c3n[nH]c4ccc(-c5cncc(CNCc6ccccc6)c5)nc34)cc12 [Compound 80, N-Benzyl-1-(5-(3-(4-(2-fluorophenyl)-1H-indol-2-yl)-1H-pyrazolo[4,3-b]pyridin-5-yl)pyridin-3-yl)methanamine] | – | – | 44
19 | 249 | 3060 | – | c1ccc(-c2ccc3[nH]nc(-c4cc5c(-c6ccncc6)cccc5[nH]4)c3n2)nc1 [Compound 140, 5-(Pyridin-2-yl)-3-(4-(pyridin-4-yl)-1H-indol-2-yl)-1H-pyrazolo[4,3-b] pyridine] | – | – | –
20 | 1860 | > 10000 | – | c1ccc(-c2ccc3[nH]nc(-c4cc5c(N6CCCCC6)cccc5[nH]4)c3n2)nc1 [Compound 196, 3-(4-(Piperidin-1-yl)-1H-indol-2-yl)-5-(pyridin-2-yl)-1H-pyrazolo[4,3-b] pyridine] | – | – | 6.2
21 | 3240 | 7160 | – | c1cc(-c2ccncc2)c2cc(-c3n[nH]c4ccc(-c5cncc(CNCC6CCCC6)c5)nc34)[nH]c2c1 [Compound 137, 1-Cyclopentyl-N-((5-(3-(4-(pyridin-4-yl)-1H-indol-2-yl)-1H-pyrazolo[4,3-b]pyridin-5-yl)pyridin-3-yl)methyl)methanamine] | – | – | –
22 | 72 | 8160 | – | c1cc(-c2ccoc2)c2cc(-c3n[nH]c4ccc(-c5cn[nH]c5)nc34)[nH]c2c1 [Compound 711, 3-(4-(Furan-3-yl)-1H-indol-2-yl)-5-(1H-pyrazol-4-yl)-1H-pyrazolo[4,3-b] pyridine] | – | – | –
23 | 91 | 883 | – | Oc1cncc(-c2ccc3[nH]nc(-c4cc5ncccc5[nH]4)c3n2)c1 [Compound 1031, 5-(3-(1H-Pyrrolo[3,2-b]pyridin-2-yl)-1H-pyrazolo[4,3-b]pyridin-5-yl) pyridin-3-ol] | – | – | –
